The compounds below were run against T1, NK1 receptors (Homo sapiens, UniProt P25103) (assay: [^3 H]SP Binding Assay in IM9 Cell Line (competition)). Details: intact IM9 cells; 0.3 nM [^3 H]SP; 60' at room temperature; pH 7.5.
T1 construct: endogenous in cells; host or cells: IM9 cells (intact)
Experimental: The evaluation of the antagonist acivity of NK1 receptors was performed with binding and functional tests.
The assay was carried out on intact cells as described by Payan et al. (1984). The cells were washed with buffer A at pH 7.5 containing (in mM) Tris-HCl 50, NaCl 150 and 0.02% BSA, thereafter were resuspended in a dosage buffer (buffer A added with protease inhibitors), concentration 1×10^7 cells/ml. […] The non-specific binding was calculated in the presence of […] of non-radioactive SP. The dosage mixture was poured in test tubes for microcentrifugation which were preadsorbed in a solution of BSA 0.5% for at least 3 hours. […] The affinity was measured as pKi.

T1 sequence (P25103 whole entry): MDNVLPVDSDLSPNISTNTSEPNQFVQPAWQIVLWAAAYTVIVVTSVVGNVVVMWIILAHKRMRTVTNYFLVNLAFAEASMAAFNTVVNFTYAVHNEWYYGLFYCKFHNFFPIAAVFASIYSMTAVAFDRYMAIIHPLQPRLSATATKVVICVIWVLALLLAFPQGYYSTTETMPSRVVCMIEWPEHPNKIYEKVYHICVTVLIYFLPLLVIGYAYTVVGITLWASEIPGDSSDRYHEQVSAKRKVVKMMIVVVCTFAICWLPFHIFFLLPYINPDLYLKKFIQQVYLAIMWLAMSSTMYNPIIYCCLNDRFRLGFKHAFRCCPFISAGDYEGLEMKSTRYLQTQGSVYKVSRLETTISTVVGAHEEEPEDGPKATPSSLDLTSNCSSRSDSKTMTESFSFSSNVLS

Affinity (pKi) in the IM9 binding test	Structure (SMILES)
7.6	COCCOCOC1CCC(NC(=O)c2c[nH]c3ccccc23)(C(=O)NC(Cc2ccccc2)C(=O)N(C)Cc2ccccc2)CC1 (stereo not drawn) [xxv, N-[N(1(H)indol-3-yl-carbonyl)-1-amino-cis-4-methoxyethoxymethoxyl-cyclohexancarbonyl]-phenylalanine-N-methyl-N-benzylamide]
8.3	CN(Cc1ccccc1)C(=O)C(Cc1ccc2ccccc2c1)NC(=O)C1(NC(=O)c2c[nH]c3ccccc23)CCC(O)CC1 (stereo not drawn) [xviii, N-[N(1(H)indol-3-yl-carbonyl)-1-amino-cis-4-hydrohy-cyclohexancarbonyl]-2-(2-naphthyl)alanine-N-methyl-N-benzylamide]

Same assay, conditions: read-out: Affinity (pKi) in the IM9 binding test (converted)

Ki	Structure (SMILES)
10 nM	CN(Cc1ccccc1)C(=O)C(Cc1ccc2ccccc2c1)NC(=O)C1(NC(=O)c2ccc(Cl)cc2)CCCCC1 (centres unmarked) [N-[N(4-chloro-benzoyl)-1-amino-cyclohexancarbonyl]-2-(2-naphthyl)alanine-N-methyl-N-benzylamide]
5.01 nM	CN(Cc1ccccc1)C(=O)C(Cc1ccc2ccccc2c1)NC(=O)C1(NC(=O)c2c[nH]c3ccccc23)CCSCC1 (centres unmarked) [N-[N(1(H)indol-3-yl-carbonyl)-4-amino-tetrahydrothiopyran-4-carbonyl]-2-(2-naphthyl)alanine-N-methyl-N-benzylamide]
1 nM	CN(Cc1ccccc1)C(=O)[C@H](Cc1ccc2ccccc2c1)NC(=O)C1(NC(=O)c2c[nH]c3ccccc23)CCCCC1 [Example, N^α [N-(1(H)indol-3-yl-carbonyl)-1-amino-cyclohexan-carbonyl]-L-2-naphthylalanine-N-methyl-N-benzylamide]
2.51 nM	CN(Cc1ccccc1)C(=O)C(Cc1ccc2ccccc2c1)NC(=O)C1(NC(=O)c2c[nH]c3ccccc23)CCCC1 (centres unmarked) [N-[N(1(H)indol-3-yl-carbonyl)-1-amino-cyclopentancarbonyl]-2-(2-naphthyl)alanine-N-methyl-N-benzylamide]
12.6 nM	CN(C(=O)Cc1ccccc1)C(Cc1ccc2ccccc2c1)NC(=O)C1(NC(=O)c2c[nH]c3ccccc23)CCNCC1 (centres unmarked) [xxviii, 1-N-[N(1(H)indol-3-yl-carbonyl)-4-amino-piperidin-4-carbonyl]-amino-1-[N(methyl)-N-(2-phenylacetyl)]amino-2-(2-naphtyl)ethane]
158 nM	CN(Cc1ccccc1)C(=O)C(Cc1ccccc1)NC(=O)C1(NC(=O)c2c[nH]c3ccccc23)CCCC1 (centres unmarked) [N-[N(1(H)indol-3-yl-carbonyl)-1-amino-cyclopentancarbonyl]-phenylalanine-N-methyl-N-benzylamide]
20 nM	CN(Cc1ccccc1)C(=O)C(Cc1ccc(O)cc1)NC(=O)C1(NC(=O)c2c[nH]c3ccccc23)CCCCC1 (centres unmarked) [N-[N(1(H)indol-3-yl-carbonyl)-1-amino-cyclohexancarbonyl]-tyrosine-N-methyl-N-benzylamide]
15.8 nM	CN(Cc1ccccc1)C(=O)C(Cc1ccc2ccccc2c1)NC(=O)C1(NC(=O)c2cn(C)c3ccccc23)CCCCC1 (centres unmarked) [N-[N(1(methyl)indol-3-yl-carbonyl)-1-amino-cyclohexancarbonyl]-2-)2-naphthyl)alanine-N-methyl-N-benzylamide]
20 nM	CN(Cc1ccccc1)C(=O)C(Cc1ccc([N+](=O)[O-])cc1)NC(=O)C1(NC(=O)c2c[nH]c3ccccc23)CCCCC1 (centres unmarked) [N-[N(1(H)indol-3-yl-carbonyl)-1-amino-cyclohexancarbonyl]-4-nitrophenylalanine-N-methyl-N-benzylamide]
15.8 nM	O=C(Cc1ccccc1)NC(Cc1ccc2ccccc2c1)NC(=O)C1(NC(=O)c2c[nH]c3ccccc23)CCCCC1 (centres unmarked) [ii, 1-[N(1(H)indol-3-yl-carbonyl)-1-amino-cyclohexancarbonyl]-amino-1[N-(2-phenylacetyl)amino]-2-(2-naphthyl)ethane]
15.8 nM	CN(Cc1ccccc1)C(=O)C(Cc1ccc2ccccc2c1)NC(=O)C1(NC(=O)c2ccccc2)CCCCC1 (centres unmarked) [N-[N(benzoyl)-1-amino-cyclohexancarbonyl]-2-(2-naphthyl)alanine-N-methyl-N-benzylamide]
3.98 nM	COc1ccc(CC(NC(=O)C2(NC(=O)c3c[nH]c4ccccc34)CCCCC2)C(=O)N(C)Cc2ccccc2)cc1 (centres unmarked) [N-[N(1(H)indol-3-yl-carbonyl)-1-amino-cyclohexancarbonyl]-4-methoxyphenylalanine-N-methyl-N-benzylamide]
44.7 nM	CN(Cc1ccccc1)C(=O)C(Cc1ccc2ccccc2c1)NC(=O)C1(NC(=O)c2cc3ccccc3o2)CCCCC1 (centres unmarked) [N-[N(benzofuran-2-yl-carbonyl)-1-aminocyclohexancarbonyl]-2-(2-naphthyl)alanine-N-methyl-N-benzylamide]
15.8 nM	CN(Cc1ccccc1)C(=O)C(Cc1ccc2ccccc2c1)NC(=O)C1(N(C)C(=O)c2cn(C)c3ccccc23)CCCCC1 (centres unmarked) [xii, N-[N(1(methyl)indol-3-yl-carbonyl)-N-methyl-1-amino-cyclohexancarbonyl]-2 naphthylalanine-N-methyl-N-benzylamide]
7.94 nM	CN(Cc1ccccc1)C(=O)C(Cc1ccc2ccccc2c1)NC(=O)C1(NC(=O)c2ccc(Cl)c(Cl)c2)CCCCC1 (centres unmarked) [N-[N(3,4-dichloro-benzoyl)-1-amino-cyclohexancarbonyl]-2-(2-naphthyl)alanine-N-methyl-N-benzylamide]
178 nM	CN(Cc1ccccc1)C(=O)C(Cc1ccccc1)NC(=O)C1(NC(=O)c2c[nH]c3ccccc23)CCCCC1 (centres unmarked) [N-[N(1(H)indol-3-yl-carbonyl)-1-amino-cyclohexancarbonyl]-phenylalanine-N-methyl-N-benzylamide]
5.01 nM	CN(Cc1ccccc1)C(=O)C(Cc1ccc2ccccc2c1)NC(=O)C1(NC(=O)c2ccc([N+](=O)[O-])cc2)CCCCC1 (centres unmarked) [N-[N(4-nitro-benzoyl)-1-amino-cyclohexancarbonyl]-2-(2-naphthyl)alanine-N-methyl-N-benzylamide]
12.6 nM	CN(Cc1ccccc1)C(=O)C(Cc1ccc2ccccc2c1)NC(=O)C1(NC(=O)c2c[nH]c3ccccc23)CCNCC1 (centres unmarked) [N-[N(1(H)indol-3-yl-carbonyl)-4-amino-piperidin-4-carbonyl]-2-(2-naphthyl)alanine-N-methyl-N-benzylamide]
6.31 nM	CN(Cc1ccccc1)C(=O)C(Cc1ccc2ccccc2c1)NC(=O)C1(NC(=O)c2c[nH]c3ccccc23)CCOCC1 (centres unmarked) [xxvii, N-[N(1(H)indol-3-yl-carbonyl)-4-amino-tetrahydropyran-4-carbonyl]-2-naphthylalanine-N-methyl-N-benzylamide]
794 nM	COc1ccc(CC(NC(=O)C2(NC(=O)c3c[nH]c4ccccc34)CCCC2)C(=O)N(C)Cc2ccccc2)cc1 (centres unmarked) [N-[N(1(H)indol-3-yl-carbonyl)-1-amino-cyclopentancarbonyl]-4-methyoxyphenylalanine-N-methyl-N-benzylamide]
20 nM	COc1ccc(C(=O)NC2(C(=O)NC(Cc3ccc4ccccc4c3)C(=O)N(C)Cc3ccccc3)CCCCC2)cc1 (centres unmarked) [N-[N(4-methoxy-benzoyl)-1-amino-cyclohexancarbonyl]-2-(2-naphthyl)alanine-N-methyl-N-benzylamide]

From patent publication US5698710A, “Tachykinins antagonists” (A. Menarini Industrie Farmaceutiche Riunite S.r.l., priority 1994, dated 1997)
